The source of these data is patent US20230097707A1, “METHODS AND ARTICLES FOR KEEPING FOOD FRESHER FOR LONGER AND SHELF-LIFE EXTENSION TO ENHANCE FOOD SECURITY AND SAFETY” (priority 2021, published 2023).

A short description of series [1]: small animal oral toxicity test. The series is classed as in vivo. The conditions noted are these: albino rat, aqueous solutions derived from concentrate (EPA/MRID). From the text: Example 1 is a small animal oral toxicity test of 3-(tri-methoxysilyl)propyldimethyl octadecyl ammonium chloride in aqueous solutions derived from concentrate. The small animal was an albino rat (EPA/MRID.) The result acute oral LD50 at 12.27 g (grams) per kg (kilogram.) That is, the lethal dose in 50% of the test subjects 12.27 grams per kilogram of body weight. This translates to a 100 kg person ingesting 1.227 kg of the raw material (or 1723 liters) at one time. The monomer poses no ingestion hazard.

In series [2] the test system is Staphylococcus aureus ATCC 6538. The following applies: coated paper, 0.15% by weight of BKC; cited from earlier work.
The test system of series [3] is Escherichia coli ATCC 8739. The following applies: coated paper, 0.15% by weight of BKC; cited from earlier work.

`CCCCCCCCCCCCCCCCCC[N+](C)(C)CCC[Si](OC)(OC)OC.[Cl-]` [1-Octadecanaminium, N,N-dimethyl-N-[3-(trimethoxysilyl)propyl]-, chloride (1:1)]: the “acute oral LD50” value in series [1] is given as 12.27 g (grams) per kg (kilogram.).
Regarding “N-Alkyl-N-benzyl-N,N-dimethylammonium chloride [BKC]”, the inhibition in series [2] and in series [3] was approximately 100% throughout.
